# How the values were obtained:
# [1] = target: Carbonic anhydrase 9 (Homo sapiens, UniProt Q16790); test: Inhibition of recombinant human CA 9 preincubated for 15 mins by phenol red dye based stopped flow CO2 hydration assay
# [2] = system: HL-60(TB); test: Anticancer activity against human HL-60(TB) cells assessed as cell growth inhibition at 10 uM incubated for 48 hrs by SRB assay relative to control; assay type: functional; settings: read-out: GI
# [3] = system: K562; test: Anticancer activity against human K562 cells assessed as cell growth inhibition at 10 uM incubated for 48 hrs by SRB assay relative to control; assay type: functional; settings: read-out: GI
# [4] = system: MOLT-4; test: Anticancer activity against human MOLT-4 cells assessed as cell growth inhibition at 10 uM incubated for 48 hrs by SRB assay relative to control; assay type: functional; settings: read-out: GI
# [5] = system: SR; test: Anticancer activity against human SR cells assessed as cell growth inhibition at 10 uM incubated for 48 hrs by SRB assay relative to control; assay type: functional; settings: read-out: GI
# [6] = system: HOP-62; test: Anticancer activity against human HOP-62 cells assessed as cell growth inhibition at 10 uM incubated for 48 hrs by SRB assay relative to control; assay type: functional; settings: read-out: GI
# [7] = system: HOP-92; test: Anticancer activity against human HOP-92 cells assessed as cell growth inhibition at 10 uM incubated for 48 hrs by SRB assay relative to control; assay type: functional; settings: read-out: GI
# [8] = system: NCI-H23; test: Anticancer activity against human NCI-H23 cells assessed as cell growth inhibition at 10 uM incubated for 48 hrs by SRB assay relative to control; assay type: functional; settings: read-out: GI
# [9] = system: NCI-H460; test: Anticancer activity against human NCI-H460 cells assessed as cell growth inhibition at 10 uM incubated for 48 hrs by SRB assay relative to control; assay type: functional; settings: read-out: GI
# [10] = system: NCI-H522; test: Anticancer activity against human NCI-H522 cells assessed as cell growth inhibition at 10 uM incubated for 48 hrs by SRB assay relative to control; assay type: functional; settings: read-out: GI
# [11] = system: HCC 2998; test: Anticancer activity against human HCC 2998 cells assessed as cell growth inhibition at 10 uM incubated for 48 hrs by SRB assay relative to control; assay type: functional; settings: read-out: GI
# [12] = system: HCT-116; test: Anticancer activity against human HCT-116 cells assessed as cell growth inhibition at 10 uM incubated for 48 hrs by SRB assay relative to control; assay type: functional; settings: read-out: GI
# [13] = system: HT-29; test: Anticancer activity against human HT-29 cells assessed as cell growth inhibition at 10 uM incubated for 48 hrs by SRB assay relative to control; assay type: functional; settings: read-out: GI
# [14] = system: KM12; test: Anticancer activity against human KM12 cells assessed as cell growth inhibition at 10 uM incubated for 48 hrs by SRB assay relative to control; assay type: functional; settings: read-out: GI
# [15] = system: SF-295; test: Anticancer activity against human SF-295 cells assessed as cell growth inhibition at 10 uM incubated for 48 hrs by SRB assay relative to control; assay type: functional; settings: read-out: GI
# [16] = system: SF-539; test: Anticancer activity against human SF-539 cells assessed as cell growth inhibition at 10 uM incubated for 48 hrs by SRB assay relative to control; assay type: functional; settings: read-out: GI
# [17] = system: SNB-19; test: Anticancer activity against human SNB-19 cells assessed as cell growth inhibition at 10 uM incubated for 48 hrs by SRB assay relative to control; assay type: functional; settings: read-out: GI
# [18] = system: SNB-75; test: Anticancer activity against human SNB-75 cells assessed as cell growth inhibition at 10 uM incubated for 48 hrs by SRB assay relative to control; assay type: functional; settings: read-out: GI
# [19] = system: Malme-3M; test: Anticancer activity against human Malme-3M cells assessed as cell growth inhibition at 10 uM incubated for 48 hrs by SRB assay relative to control; assay type: functional; settings: read-out: GI
# [20] = system: MDA-MB-435; test: Anticancer activity against human MDA-MB-435 cells assessed as cell growth inhibition at 10 uM incubated for 48 hrs by SRB assay relative to control; assay type: functional; settings: read-out: GI
# [21] = system: SK-MEL-2; test: Anticancer activity against human SK-MEL-2 cells assessed as cell growth inhibition at 10 uM incubated for 48 hrs by SRB assay relative to control; assay type: functional; settings: read-out: GI
# [22] = system: SK-MEL-28; test: Anticancer activity against human SK-MEL-28 cells assessed as cell growth inhibition at 10 uM incubated for 48 hrs by SRB assay relative to control; assay type: functional; settings: read-out: GI
# [23] = system: SK-MEL-5; test: Anticancer activity against human SK-MEL-5 cells assessed as cell growth inhibition at 10 uM incubated for 48 hrs by SRB assay relative to control; assay type: functional; settings: read-out: GI
# [24] = system: UACC-257; test: Anticancer activity against human UACC-257 cells assessed as cell growth inhibition at 10 uM incubated for 48 hrs by SRB assay relative to control; assay type: functional; settings: read-out: GI
# [25] = system: IGROV-1; test: Anticancer activity against human IGROV-1 cells assessed as cell growth inhibition at 10 uM incubated for 48 hrs by SRB assay relative to control; assay type: functional; settings: read-out: GI
# [26] = system: OVCAR-3; test: Anticancer activity against human OVCAR-3 cells assessed as cell growth inhibition at 10 uM incubated for 48 hrs by SRB assay relative to control; assay type: functional; settings: read-out: GI
# [27] = system: OVCAR-5; test: Anticancer activity against human OVCAR-5 cells assessed as cell growth inhibition at 10 uM incubated for 48 hrs by SRB assay relative to control; assay type: functional; settings: read-out: GI
# [28] = system: SK-OV-3; test: Anticancer activity against human SK-OV-3 cells assessed as cell growth inhibition at 10 uM incubated for 48 hrs by SRB assay relative to control; assay type: functional; settings: read-out: GI
# [29] = system: ACHN; test: Anticancer activity against human ACHN cells assessed as cell growth inhibition at 10 uM incubated for 48 hrs by SRB assay relative to control; assay type: functional; settings: read-out: GI
# [30] = system: CAKI-1; test: Anticancer activity against human CAKI-1 cells assessed as cell growth inhibition at 10 uM incubated for 48 hrs by SRB assay relative to control; assay type: functional; settings: read-out: GI
# [31] = system: RXF 393; test: Anticancer activity against human RXF 393 cells assessed as cell growth inhibition at 10 uM incubated for 48 hrs by SRB assay relative to control; assay type: functional; settings: read-out: GI
# [32] = system: SN12C; test: Anticancer activity against human SN12C cells assessed as cell growth inhibition at 10 uM incubated for 48 hrs by SRB assay relative to control; assay type: functional; settings: read-out: GI
# [33] = system: TK-10; test: Anticancer activity against human TK-10 cells assessed as cell growth inhibition at 10 uM incubated for 48 hrs by SRB assay relative to control; assay type: functional; settings: read-out: GI
# [34] = system: MDA-MB-231; test: Anticancer activity against human MDA-MB-231 cells assessed as cell growth inhibition at 10 uM incubated for 48 hrs by SRB assay relative to control; assay type: functional; settings: read-out: GI
# [35] = system: Hs-578T; test: Anticancer activity against human Hs-578T cells assessed as cell growth inhibition at 10 uM incubated for 48 hrs by SRB assay relative to control; assay type: functional; settings: read-out: GI
# [36] = system: BT-549; test: Anticancer activity against human BT-549 cells assessed as cell growth inhibition at 10 uM incubated for 48 hrs by SRB assay relative to control; assay type: functional; settings: read-out: GI
# [37] = system: T47D; test: Anticancer activity against human T47D cells assessed as cell growth inhibition at 10 uM incubated for 48 hrs by SRB assay relative to control; assay type: functional; settings: read-out: GI
# [38] = system: MDA-MB-468; test: Anticancer activity against human MDA-MB-468 cells assessed as cell growth inhibition at 10 uM incubated for 48 hrs by SRB assay relative to control; assay type: functional; settings: read-out: GI
# [39] = system: OVCAR-4; test: Anticancer activity against human OVCAR-4 cells assessed as cell growth inhibition at 10 uM incubated for 48 hrs by SRB assay relative to control; assay type: functional; settings: read-out: GI
Compound,Ki [1] [nM],inhibition of growth at 10 µM [2] [%],inhibition of growth at 10 µM [3] [%],inhibition of growth at 10 µM [4] [%],inhibition of growth at 10 µM [5] [%],inhibition of growth at 10 µM [6] [%],inhibition of growth at 10 µM [7] [%],inhibition of growth at 10 µM [8] [%],inhibition of growth at 10 µM [9] [%],inhibition of growth at 10 µM [10] [%],inhibition of growth at 10 µM [11] [%],inhibition of growth at 10 µM [12] [%],inhibition of growth at 10 µM [13] [%],inhibition of growth at 10 µM [14] [%],inhibition of growth at 10 µM [15] [%],inhibition of growth at 10 µM [16] [%],inhibition of growth at 10 µM [17] [%],inhibition of growth at 10 µM [18] [%],inhibition of growth at 10 µM [19] [%],inhibition of growth at 10 µM [20] [%],other results
CCCCc1nc(/C=N/Nc2nc(Nc3ccccc3)nc(Nc3ccc(S(N)(=O)=O)cc3)n2)c(Cl)[nH]1,259,< 10,62,58,88,< 10,39,< 10,< 10,58,29,< 10,< 10,< 10,< 10,18,69,< 10,< 10,< 10,inhibition of growth at 10 µM [21]: 34%; inhibition of growth at 10 µM [22]: 28%; inhibition of growth at 10 µM [23]: 24%; inhibition of growth at 10 µM [24]: < 10%; inhibition of growth at 10 µM [25]: < 10%; inhibition of growth at 10 µM [26]: 53%; inhibition of growth at 10 µM [27]: < 10%; inhibition of growth at 10 µM [28]: < 10%; inhibition of growth at 10 µM [29]: < 10%; inhibition of growth at 10 µM [30]: < 10%; inhibition of growth at 10 µM [31]: < 10%; inhibition of growth at 10 µM [32]: < 10%; inhibition of growth at 10 µM [33]: < 10%; inhibition of growth at 10 µM [34]: 33%; inhibition of growth at 10 µM [35]: 22%; inhibition of growth at 10 µM [36]: 52%; inhibition of growth at 10 µM [37]: 85%; inhibition of growth at 10 µM [38]: 112%; inhibition of growth at 10 µM [39]: 19%
Cc1ccc(/C=N/Nc2nc(Nc3ccccc3)nc(Nc3ccc(S(N)(=O)=O)cc3)n2)cc1,26.9,24,43,59,64,13,> 10,23,45,10,25,48,45,34,42,55,22,32,< 10,30,inhibition of growth at 10 µM [21]: 22%; inhibition of growth at 10 µM [22]: 24%; inhibition of growth at 10 µM [23]: 23%; inhibition of growth at 10 µM [24]: < 10%; inhibition of growth at 10 µM [25]: 46%; inhibition of growth at 10 µM [26]: 39%; inhibition of growth at 10 µM [27]: 15%; inhibition of growth at 10 µM [28]: < 10%; inhibition of growth at 10 µM [29]: 38%; inhibition of growth at 10 µM [30]: 39%; inhibition of growth at 10 µM [31]: 102%; inhibition of growth at 10 µM [32]: 17%; inhibition of growth at 10 µM [33]: < 10%; inhibition of growth at 10 µM [34]: 26%; inhibition of growth at 10 µM [35]: 37%; inhibition of growth at 10 µM [36]: 23%; inhibition of growth at 10 µM [37]: 45%; inhibition of growth at 10 µM [38]: 35%; inhibition of growth at 10 µM [39]: 30%

# — ChEMBL document CHEMBL5154747, “Discovery of new carbonic anhydrase IX inhibitors as anticancer agents by toning the hydrophobic and hydrophilic rims of the active site to encounter the dual-tail approach” (Eur J Med Chem, 2022)
